From the supplement of paper PMC10307832

What was measured:
Assay in all cases: relative viability (nuclei count vs DMSO), 5 days (fraction); higher = more cells survive
Kobe2602 + Palbociclib = compound: C1=CC(=CC=C1NC(=S)NNC2=C(C=C(C=C2[N+](=O)[O-])C(F)(F)F)[N+](=O)[O-])F [Kobe2602] + CC(=O)c1c(C)c2cnc(Nc3ccc(N4CCNCC4)cn3)nc2n(C2CCCC2)c1=O [Palbociclib] (partner 0.5 µM)
Procedure, shortened: (§1)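 Each reported value is a median over duplicate plates. It expresses relative viability: treated-well nuclei count divided by vehicle-well nuclei count. Lung cancer cell lines in 1536-well plates were dosed by pin tool a day after seeding, alone with one drug or with a fixed anchor-drug dose plus five library-drug doses (not always all listed) in √10 steps, and nuclei were counted after 5 days.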

[1] = compound: COc1cc2nccc(Oc3ccc(NC(=O)C4(C(=O)Nc5ccc(F)cc5)CC4)cc3)c2cc1OC [Cabozantinib] + CC(=O)Nc1cccc(-n2c(=O)n(C3CC3)c(=O)c3c(Nc4ccc(I)cc4F)n(C)c(=O)c(C)c32)c1 [Trametinib] (partner 0.02 µM)
Procedure, shortened: as §1

Cabozantinib + Alpelisib = compound: COc1cc2nccc(Oc3ccc(NC(=O)C4(C(=O)Nc5ccc(F)cc5)CC4)cc3)c2cc1OC [Cabozantinib] + Cc1nc(NC(=O)N2CCC[C@H]2C(N)=O)sc1-c1ccnc(C(C)(C)C(F)(F)F)c1 [Alpelisib] (partner 2 µM)
Procedure, shortened: as §1

Zosuquidar + Luminespib = compound: O[C@@H](COc1cccc2ncccc12)CN1CCN([C@@H]2c3ccccc3[C@@H]3[C@H](c4ccccc42)C3(F)F)CC1 [Zosuquidar] + CCNC(=O)c1noc(-c2cc(C(C)C)c(O)cc2O)c1-c1ccc(CN2CCOCC2)cc1 [Luminespib] (partner 0.01 µM)
Procedure, shortened: as §1

Cell Line | relative viability (Kobe2602 + Palbociclib; first compound 0.2 µM) | relative viability (Kobe2602 + Palbociclib; first compound 0.6325 µM) | relative viability (Kobe2602 + Palbociclib; first compound 2 µM) | relative viability (Kobe2602 + Palbociclib; first compound 6.325 µM) | relative viability (Kobe2602 + Palbociclib; first compound 20 µM) | relative viability ([1]; first compound 0.02 µM) | relative viability ([1]; first compound 0.06325 µM) | relative viability ([1]; first compound 0.2 µM) | relative viability ([1]; first compound 0.6325 µM) | relative viability ([1]; first compound 2 µM) | relative viability (Cabozantinib + Alpelisib; first compound 0.02 µM) | relative viability (Cabozantinib + Alpelisib; first compound 0.06325 µM) | relative viability (Cabozantinib + Alpelisib; first compound 0.2 µM) | relative viability (Cabozantinib + Alpelisib; first compound 0.6325 µM) | relative viability (Cabozantinib + Alpelisib; first compound 2 µM) | relative viability (Zosuquidar + Luminespib; first compound 0.01 µM) | relative viability (Zosuquidar + Luminespib; first compound 0.03162 µM) | relative viability (Zosuquidar + Luminespib; first compound 0.1 µM) | relative viability (Zosuquidar + Luminespib; first compound 0.3162 µM) | relative viability (Zosuquidar + Luminespib; first compound 1 µM)
NCI-H1395 | 0.636 | 0.69 | 0.638 | 0.589 | 0.647 | 0.981 | 1.18 | 1.09 | 1.06 | 0.938 | 1.13 | 1.21 | 1.06 | 1.13 | 1.06 | 0.685 | 0.656 | 0.618 | 0.349 | 0.818
NCI-H1651 | 0.528 | 0.52 | 0.521 | 0.524 | 0.518 | 0.915 | 0.86 | 0.845 | 0.774 | 0.82 | 0.883 | 0.998 | 0.97 | 0.952 | 0.728 | 0.897 | 0.973 | 0.655 | 0.862 | 0.792
NCI-H1734 | 0.364 | 0.412 | 0.325 | 0.607 | 0.334 | 0.738 | 0.665 | 0.716 | 0.623 | 0.597 | 0.718 | 0.681 | 0.717 | 0.654 | 0.638 | 0.222 | 0.251 | 0.182 | 0.187 | 0.184
NCI-H520 | 0.239 | 0.217 | 0.249 | 0.231 | 0.205 | 0.699 | 0.83 | 0.808 | 0.73 | 0.538 | 0.92 | 0.928 | 0.958 | 0.713 | 0.833 | 0.226 | 0.192 | – | 0.193 | 0.206
PC-14 | 0.502 | 0.51 | 0.539 | 0.455 | 0.32 | 0.81 | 0.955 | – | 0.755 | 0.685 | 1 | 1.03 | – | 0.901 | 0.868 | 0.129 | – | 0.135 | 0.135 | 0.124
NCI-H2347 | 0.422 | 0.435 | 0.403 | 0.438 | 0.421 | 0.252 | 0.296 | 0.269 | 0.249 | 0.268 | 1.2 | 1.15 | 1.01 | 0.985 | 0.668 | 0.539 | 0.51 | 0.256 | 0.34 | 0.602
NCI-H1793 | 0.326 | 0.318 | 0.304 | 0.31 | 0.293 | 0.489 | 0.428 | – | 0.432 | 0.341 | 0.845 | 0.864 | 0.561 | 0.759 | 0.637 | 0.179 | 0.263 | – | 0.207 | 0.207
NCI-H650 | 0.31 | 0.357 | 0.344 | 0.402 | 0.372 | 0.923 | 0.998 | 1.16 | 0.984 | 0.876 | 1.04 | 1.01 | 1.13 | 1.05 | 0.926 | 0.96 | 0.764 | 0.809 | 0.777 | 0.904
